This is an account of results in ChEMBL document CHEMBL5584255, “Synthesis and antibacterial medicinal evaluation of carbothioamido hydrazonyl thiazolylquinolone with multitargeting antimicrobial potential to combat increasingly global resistance” (Eur J Med Chem, 2024).

Holding throughout (type): functional
Assay [1] has as its system Staphylococcus aureus. In words: Antibacterial activity against Staphylococcus aureus ATCC 25923 by microbroth dilution method. (In general: Dilution methods test growth across graded concentrations, often in twofold steps.)
Assay [2] deals with Staphylococcus aureus. In words: Antibacterial activity against Staphylococcus aureus ATCC 29213 by microbroth dilution method.
Assay [3] has as its system Staphylococcus aureus. In words: Antibacterial activity against drug-resistant Staphylococcus aureus by microbroth dilution method.
For assay [4], the system named is Candida parapsilosis. In words: Antifungal activity against Candida parapsilosis ATCC 22019. The conditions noted are these: Lodderomyces parapsilosis.
Assay [5] concerns Escherichia coli. In words: Antibacterial activity against Escherichia coli ATCC 25922 by microbroth dilution method.
Assay [6] relates to Aspergillus fumigatus. In words: Antifungal activity against Aspergillus fumigatus.
Assay [7] deals with Pseudomonas aeruginosa. In words: Antibacterial activity against Pseudomonas aeruginosa ATCC 27853 by microbroth dilution method.
In assay [8] the test system is Acinetobacter baumannii. In words: Antibacterial activity against Acinetobacter baumannii by microbroth dilution method.
The subject of assay [9] is Candida albicans. In words: Antifungal activity against Candida albicans ATCC 90023.
The test system of assay [10] is Escherichia coli. In words: Antibacterial activity against drug-resistant Escherichia coli by microbroth dilution method.
The test system of assay [11] is Staphylococcus aureus. In words: Antibacterial activity against methicillin-resistant Staphylococcus aureus N315 by microbroth dilution method.
Assay [12] deals with Candida tropicalis. In words: Antifungal activity against drug-resistant Candida tropicalis.
Assay [13] deals with Klebsiella pneumoniae. In words: Antibacterial activity against Klebsiella pneumoniae by microbroth dilution method.
Assay [14] has as its system Candida albicans. In words: Antifungal activity against drug-resistant Candida albicans.
Assay [15] has as its system Pseudomonas aeruginosa. In words: Antibacterial activity against Pseudomonas aeruginosa by microbroth dilution method.
In assay [16] the test system is Enterococcus faecalis. In words: Antibacterial activity against drug-resistant Enterococcus faecalis by microbroth dilution method.

≈ marks a conversion by molar mass, not a printed value.

Consider `CC(=O)Cn1cc(-c2csc(N)n2)c(=O)c2cc(F)c(Cl)cc21`, for which the MIC (usually the smallest concentration in the dilution series that meets the test's criterion for growth inhibition) in assay [1] is 182 µM (≈ 64 µg/mL); in assay [2] it was 365 µM (≈ 128 µg/mL); in assay [3], 182 µM (≈ 64 µg/mL); in assay [4] it was 182 µM (≈ 64 µg/mL); in assay [5], 182 µM (≈ 64 µg/mL); in assay [6], 365 µM (≈ 128 µg/mL). Besides, the MIC stood at 91 µM (≈ 32 µg/mL) in assay [7]; 365 µM (≈ 128 µg/mL) in [8]; 91 µM (≈ 32 µg/mL) in assay [9]; 729 µM (≈ 256 µg/mL) in assay [10]; 365 µM (≈ 128 µg/mL) in [11]; 365 µM (≈ 128 µg/mL) in assay [12]. The MIC in [13] worked out at 729 µM (≈ 256 µg/mL); in assay [14], 91 µM (≈ 32 µg/mL); in assay [15], 91 µM (≈ 32 µg/mL); in [16] it was 365 µM (≈ 128 µg/mL).

As to `CC(=O)Cn1cc(-c2csc(C)n2)c(=O)c2cc(F)c(Cl)cc21`, the MIC was determined as 366 µM (≈ 128 µg/mL) in assay [1]; 366 µM (≈ 128 µg/mL) in [2]; 366 µM (≈ 128 µg/mL) in assay [3]; 366 µM (≈ 128 µg/mL) in [4]; 731 µM (≈ 256 µg/mL) in assay [5]; 731 µM (≈ 256 µg/mL) in [6]. Moreover, the MIC in [7] worked out at 366 µM (≈ 128 µg/mL); in assay [8] it was 731 µM (≈ 256 µg/mL); in assay [9] it was 91 µM (≈ 31.9 µg/mL); in [10], 731 µM (≈ 256 µg/mL); in [11] it was 731 µM (≈ 256 µg/mL); in assay [12], 731 µM (≈ 256 µg/mL). In addition, the MIC in assay [13] amounted to 731 µM (≈ 256 µg/mL); in [14], 366 µM (≈ 128 µg/mL); in assay [15], 731 µM (≈ 256 µg/mL); in assay [16], 366 µM (≈ 128 µg/mL).

On to `Nc1nc(-c2c[nH]c3c(F)cccc3c2=O)cs1`, for which the MIC turned out to be 981 µM (≈ 256 µg/mL) in [1]; 981 µM (≈ 256 µg/mL) in [2]; 981 µM (≈ 256 µg/mL) in assay [3]; 245 µM (≈ 64 µg/mL) in [4]; 981 µM (≈ 256 µg/mL) in assay [5]; 490 µM (≈ 128 µg/mL) in assay [6]. For the same molecule, the MIC in assay [7] was 981 µM (≈ 256 µg/mL); in assay [8], 490 µM (≈ 128 µg/mL); in assay [9], 490 µM (≈ 128 µg/mL); in assay [10], 981 µM (≈ 256 µg/mL); in assay [11] it was 981 µM (≈ 256 µg/mL); in assay [12], 981 µM (≈ 256 µg/mL). Also, the MIC in assay [13] was 981 µM (≈ 256 µg/mL); in assay [14], 981 µM (≈ 256 µg/mL); in assay [15] it was 981 µM (≈ 256 µg/mL); in assay [16], 490 µM (≈ 128 µg/mL).

In the case of `Cc1nc(-c2c[nH]c3ccc(F)cc3c2=O)cs1`, the MIC in [1] came to 1970 µM (≈ 513 µg/mL); in assay [2], 985 µM (≈ 256 µg/mL); in assay [3], 1970 µM (≈ 513 µg/mL); in [4], 492 µM (≈ 128 µg/mL); in [5] it was 492 µM (≈ 128 µg/mL); in assay [6], 985 µM (≈ 256 µg/mL). The MIC stood at 492 µM (≈ 128 µg/mL) in assay [7]; 492 µM (≈ 128 µg/mL) in [8]; 492 µM (≈ 128 µg/mL) in assay [9]; 1970 µM (≈ 513 µg/mL) in assay [10]; 1970 µM (≈ 513 µg/mL) in [11]; 985 µM (≈ 256 µg/mL) in assay [12]. The MIC in assay [13] came to 1970 µM (≈ 513 µg/mL); in [14] it was 985 µM (≈ 256 µg/mL); in assay [15], 985 µM (≈ 256 µg/mL); in assay [16], 985 µM (≈ 256 µg/mL).

`C/C(Cn1cc(-c2csc(N)n2)c(=O)c2cc(F)ccc21)=N\NC(N)=S`: the MIC stood at 82 µM (≈ 32 µg/mL) in assay [1]; 82 µM (≈ 32 µg/mL) in assay [2]; 82 µM (≈ 32 µg/mL) in assay [3]; 656 µM (≈ 256 µg/mL) in [4]; 164 µM (≈ 64 µg/mL) in assay [5]; 656 µM (≈ 256 µg/mL) in assay [6]. The MIC in [7] was 656 µM (≈ 256 µg/mL); in assay [8], 328 µM (≈ 128 µg/mL); in assay [9], 328 µM (≈ 128 µg/mL); in assay [10] it was 328 µM (≈ 128 µg/mL); in [11], 164 µM (≈ 64 µg/mL); in [12], 328 µM (≈ 128 µg/mL). In addition, the MIC in assay [13] amounted to 656 µM (≈ 256 µg/mL); in [14], 328 µM (≈ 128 µg/mL); in [15], 656 µM (≈ 256 µg/mL); in [16], 328 µM (≈ 128 µg/mL).

For the molecule `C/C(Cn1cc(-c2csc(C)n2)c(=O)c2cccc(F)c21)=N\NC(N)=S`, the MIC turned out to be 658 µM (≈ 256 µg/mL) in assay [1]; 329 µM (≈ 128 µg/mL) in assay [2]; 1320 µM (≈ 513 µg/mL) in assay [3]; 658 µM (≈ 256 µg/mL) in [4]; 329 µM (≈ 128 µg/mL) in [5]; 658 µM (≈ 256 µg/mL) in assay [6]. Also, the MIC turned out to be 329 µM (≈ 128 µg/mL) in assay [7]; 329 µM (≈ 128 µg/mL) in assay [8]; 1320 µM (≈ 513 µg/mL) in assay [9]; 329 µM (≈ 128 µg/mL) in assay [10]; 1320 µM (≈ 513 µg/mL) in assay [11]; 329 µM (≈ 128 µg/mL) in [12]. Moreover, the MIC in [13] is 1320 µM (≈ 513 µg/mL); in assay [14], 1320 µM (≈ 513 µg/mL); in assay [15], 329 µM (≈ 128 µg/mL); in assay [16], 658 µM (≈ 256 µg/mL).

As to `Cc1nc(-c2c[nH]c3cc(F)c(F)cc3c2=O)cs1`, the MIC stood at 460 µM (≈ 128 µg/mL) in assay [1]; 921 µM (≈ 256 µg/mL) in assay [2]; 1840 µM (≈ 513 µg/mL) in assay [3]; 1840 µM (≈ 513 µg/mL) in [4]; 460 µM (≈ 128 µg/mL) in assay [5]; 921 µM (≈ 256 µg/mL) in [6]. Further, the MIC in assay [7] amounted to 460 µM (≈ 128 µg/mL); in assay [8] it was 1840 µM (≈ 513 µg/mL); in [9], 115 µM (≈ 32 µg/mL); in assay [10], 1840 µM (≈ 513 µg/mL); in [11], 460 µM (≈ 128 µg/mL); in assay [12] it was 921 µM (≈ 256 µg/mL). Further, the MIC in assay [13] amounted to 1840 µM (≈ 513 µg/mL); in assay [14], 460 µM (≈ 128 µg/mL); in assay [15], 921 µM (≈ 256 µg/mL); in [16], 460 µM (≈ 128 µg/mL).
